According to patent publication US11203586B2, “Iridinesulfonamide compound and use method thereof” (Chia Tai Tianqing Pharmaceutical Group Co., Ltd., priority 2016, dated 2021):

Target: IDH1 (R132H) (Homo sapiens (Human), UniProt O75874, R132H)
Test: Enzyme assay, NADPH decrease detected with Diaphorase/Resazurin
Format: biochemical
Conditions: 40 nM enzyme, 20 μM NADPH, incubated at 23° C. for 16 hours before α-KG; 12 concentrations
From the text: Resazurin is a traditional redox dye, and after a redox reaction, it can be reduced from a blue resazurin without fluorescence to a pink fluorescent substance, resorufin, which can be measured and quantified with relative fluorescence unit (RFU) of fluorophotometer (Ex=530-570 nm, Em=590-620 nm). At present, resazurin is widely used for determining the viability of bacteria, cells, etc. and the enzyme activity detection of oxidoreductase. We detected the decrease of cofactor NADPH to determine the inhibitory activity of a compound against IDHm and detected the generation of cofactor NADPH to determine the inhibitory activity of a compound against IDH WT.
The compound was pre-incubated with IDHm and NADPH, and then the reaction was initiated by adding α-KG and performed for certain time under a linear condition.
Then, Diaphorase (lipoamide dehydrogenase) and the corresponding substrate Resazurin were added thereto for detection. Lipoamide dehydrogenase terminated the IDH2m reaction by decreasing the available cofactor NADPH, which oxidized NADPH to NADP, and reduced resazurin to high fluorescent resorufin. The amount of the remaining cofactor NADPH after a specific reaction time was quantified via an easily detectable fluorophore.
The specific operation was as follows: 2.5 μl of the compound diluted in a 3-fold gradient was added to a 384-well plate, followed by adding 5 μL of the reaction buffer (20 mM Tris-HCl, pH 7.5; 150 mM NaCl; 10 mM MgCl2; 0.4 mg/mL BSA (Bovine Serum Albumin) and 2 mM DTT (dithiothreitol)) containing 40 nM IDH1 (R132H/R132C) and 20 μM NADPH. Then, the above test mixture was incubated at 23° C. for 16 hours, and then 2.5 μL of the reaction buffer containing 4 mM α-KG was added to initiate the reaction. After they were incubated for 60 minutes at room temperature, 5 μL of the termination mixture (0.4 U/ml Diaphorase and 20 μM Resazurin) formulated with the reaction buffer was added to convert resazurin to resorufin, so as to measure the amount of the remaining NADPH. After incubating at 23° C. for 10 minutes, fluorescence values were determined through Flexstation 3 at Ex535/Em595. The enzyme activity of each compound was respectively determined at 12 concentrations, and the data were calculated using the software GraFit6.0 (Erithacus Software) to obtain the IC50 value of each compound.

IDH1 (R132H), sequence (O75874 whole entry R132H): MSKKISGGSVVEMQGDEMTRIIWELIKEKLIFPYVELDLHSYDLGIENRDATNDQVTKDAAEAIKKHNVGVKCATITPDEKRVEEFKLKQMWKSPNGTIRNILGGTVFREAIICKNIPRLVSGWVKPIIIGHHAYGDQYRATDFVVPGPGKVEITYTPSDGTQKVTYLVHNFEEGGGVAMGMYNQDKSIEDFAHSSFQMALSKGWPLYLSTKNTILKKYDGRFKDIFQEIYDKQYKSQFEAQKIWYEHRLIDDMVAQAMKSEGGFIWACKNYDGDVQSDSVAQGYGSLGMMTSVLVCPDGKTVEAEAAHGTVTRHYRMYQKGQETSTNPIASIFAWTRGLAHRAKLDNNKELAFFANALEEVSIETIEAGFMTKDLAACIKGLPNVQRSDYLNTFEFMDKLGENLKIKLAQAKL

Row | IC50 | Compound
1 | < 10000 nM | C[C@@H](NS(=O)(=O)N1CC1)C(=O)N(c1cccc(F)c1)[C@@H](C(=O)NC1CCCCC1)c1ccccc1Cl [Example 3, (R)-2-(aziridine-1-sulfonylamino)-N—((R)-(2-chlorophenyl)-2-(cyclohexylamino)-2-oxoethyl)-N-(3-fluorophenyl)propanamide]
2 | < 20 nM | O=C(NC1CCCCC1)C(c1ccccc1Cl)N(C(=O)CNS(=O)(=O)N1CC1)c1cc(F)cc(F)c1 (centres unmarked) [Example 16, 2-(aziridine-1-sulfonylamino)-N-(1-(2-chlorophenyl)-2-(cyclohexylamino)-2-oxoethyl)-N-(3,5-difluorophenyl)acetamide]
3 | < 20 nM | O=C(NC1CCCCC1)C(c1ccccc1Cl)N(C(=O)CS(=O)(=O)N1CC1)c1cccc(F)c1 (centres unmarked) [Example 15, 2-(aziridin-1-ylsulfonyl)-N-(1-(2-chlorophenyl)-2-(cyclohexylamino)-2-oxoethyl)-N-(3-fluorophenyl)acetamide]
4 | < 20 nM | O=C(NC1CC(F)(F)C1)C(c1ccccc1Cl)N(C(=O)CCCNS(=O)(=O)N1CC1)c1cccc(F)c1 (centres unmarked) [Example 13, 4-(aziridine-1-sulfonylamino)-N-(1-(2-chlorophenyl)-2-((3,3-difluorocyclobutyl)amino)-2-oxoethyl)-N-(3-fluorophenyl)butanamide]
5 | < 20 nM | O=C(NC1CC(F)(F)C1)C(c1ccccc1Cl)N(C(=O)CCNS(=O)(=O)N1CC1)c1cccc(F)c1 (centres unmarked) [Example 8, 3-(aziridine-1-sulfonylamino)-N-(1-(2-chlorophenyl)-2-((3,3-difluorocyclobutyl)amino)-2-oxoethyl)-N-(3-fluorophenyl)propanamide]
6 | < 500 nM | C[C@H](NS(=O)(=O)N1CC1)C(=O)N(c1cccc(F)c1)C(C(=O)NC1CCCCC1)c1ccccc1Cl (some centres unmarked) [Example 2, (2)-2-(aziridine-1-sulfonylamino)-N-(1-(2-chlorophenyl)-2-(cyclohexylamino)-2-oxoethyl)-N-(3-fluorophenyl)propanamide]
7 | < 20 nM | C[C@@H]1CN1S(=O)(=O)NCC(=O)N(c1cccc(F)c1)C(C(=O)NC1CCCCC1)c1ccccc1Cl (stereo partly drawn) [Example 31, 2-(2-chlorophenyl)-N-cyclohexyl-2-(N-(3-fluorophenyl)-2-(((R)-2-methylaziridine)-1-sulfonylamino)acetamido)acetamide]
8 | < 100 nM | C[C@H]1CN1S(=O)(=O)NCC(=O)N(c1cc(F)cc(C#N)c1)C(C(=O)NC1CC(F)(F)C1)c1ccccc1Cl (stereo partly drawn) [Example 33, 2-(2-chlorophenyl)-2-(N-(3-cyano-5-fluorophenyl)-2-(((S)-2-methylaziridine)-1-sulfonylamino)acetamido)-N-(3,3-difluorocyclobutyl)acetamide]
9 | < 10000 nM | CC(C)[C@@H]1CN1S(=O)(=O)N(CC(=O)N(c1cccc(F)c1)C(C(=O)NC1CCCCC1)c1ccccc1Cl)C(=O)OC(C)(C)C (some centres unmarked) [Example 7]
10 | < 20 nM | O=C(NC1CC(F)(F)C1)[C@H](c1ccccc1Cl)N(C(=O)[C@H]1CCN(S(=O)(=O)N2CC2)C1)c1cccc(F)c1 [Example 34, (S)-1-(aziridin-1-ylsulfonyl)-N—((S)-1-(2-chlorophenyl)-2-((3,3-difluorocyclobutyl)amino)-2-oxoethyl)-N-(3-fluorophenyl)pyrrolidine-3-carboxamide]
11 | < 20 nM | O=C(NC1CC(F)(F)C1)[C@@H](c1ccccc1Cl)N(C(=O)[C@H]1CCN(S(=O)(=O)N2CC2)C1)c1cccc(F)c1 [Example 35, (S)-1-(aziridin-1-ylsulfonyl)-N—((R)-1-(2-chlorophenyl)-2-((3,3-difluorocyclobutyl)amino)-2-oxoethyl)-N-(3-fluorophenyl)pyrrolidine-3-carboxamide]
12 | < 100 nM | CC(C)[C@@H]1CN1S(=O)(=O)NCC(=O)N(c1cccc(F)c1)C(C(=O)NC1CCCCC1)c1ccccc1Cl (stereo in doubt) [Example 9, 2-(2-chlorophenyl)-N-cyclohexyl-2-(N-(3-fluorophenyl)-2-((R)-2-isopropylaziridine-1-sulfonylamino)acetamido)acetamide]
13 | < 20 nM | O=C(NC1CCCCC1)C(c1ccccc1Cl)N(C(=O)C1CN(S(=O)(=O)N2CC2)C1)c1cccc(F)c1 (centres unmarked) [Example 24, 1-(aziridin-1-ylsulfonyl)-N-(1-(2-chlorophenyl)-2-cyclohexylamino-2-oxoethyl)-N-(3-fluorophenyl)azetidine-3-carboxamide]
14 | < 10000 nM | O=C(NC1CCCCC1)[C@@H](c1ccccc1Cl)N(C(=O)[C@@H]1CCCN1S(=O)(=O)N1CC1)c1cccc(F)c1 [Example 18, (S)-1-(aziridin-1-ylsulfonyl)-N—((R)-1-(2-chlorophenyl)-2-(cyclohexylamino)-2-oxoethyl)-N-(3-fluorophenyl)pyrrolidine-2-carboxamide]
15 | < 20 nM | O=C(NC1CCCCC1)C(c1ccccc1Cl)N(C(=O)C1CCN(S(=O)(=O)N2CC2)C1)c1cccc(F)c1 (centres unmarked) [Example 27, 1-(aziridin-1-ylsulfonyl)-N-(1-(2-chlorophenyl)-2-cyclohexylamino-2-oxoethyl)-N-(3-fluorophenyl)pyrrolidine-3-carboxamide]
16 | < 100 nM | NS(=O)(=O)c1cccc(N(C(=O)CNS(=O)(=O)N2CC2)C(C(=O)NC2CC(F)(F)C2)c2ccccc2Cl)c1 (centres unmarked) [Example 28, 2-(aziridine-1-sulfonylamino)-N-(1-(2-chlorophenyl)-2-((3,3-difluorocyclobutyl)amino)-2-oxoethyl)-N-(3-aminosulfonylphenyl)acetamide]
17 | < 100 nM | O=C(NC1CC(F)(F)C1)C(c1ccccc1Cl)N(C(=O)CNS(=O)(=O)N1CC1)c1cncc(F)c1 (centres unmarked) [Example 11, 2-(aziridine-1-sulfonylamino)-N-(1-(2-chlorophenyl)-2-((3,3-difluorocyclobutyl)amino)-2-oxoethyl)-N-(5-fluoropyridin-3-yl)acetamide]
18 | < 20 nM | O=C(NC1CCCCC1)C(c1ccccc1Cl)N(C(=O)CCS(=O)(=O)N1CC1)c1cccc(F)c1 (centres unmarked) [Example 6, 3-(aziridin-1-ylsulfonyl)-N-(1-(2-chlorophenyl)-2-(cyclohexylamino)-2-oxoethyl)-N-(3-fluorophenyl)propanamide]
19 | < 20 nM | O=C(NC1CC(F)(F)C1)C(c1ccccc1Cl)N(C(=O)CNS(=O)(=O)N1CC1)c1ccc(F)c(F)c1 (centres unmarked) [Example 29, 2-(aziridine-1-sulfonylamino)-N-(1-(2-chlorophenyl)-2-((3,3-difluorocyclobutyl)amino)-2-oxoethyl)-N-(3,4-difluorophenyl)acetamide]
20 | < 100 nM | O=C(NC1CC(F)(F)C1)C(c1ccccc1Cl)N(C(=O)CNS(=O)(=O)N1CC1)c1cccc(C(F)(F)F)c1 (centres unmarked) [Example 23, 2-(aziridine-1-sulfonylamino)-N-(1-(2-chlorophenyl)-2-((3,3-difluorocyclobutyl)amino)-2-oxoethyl)-N-(3-trifluoromethylphenyl)acetamide]
21 | < 20 nM | O=C(NC1CC(F)(F)C1)[C@H](c1ccccc1Cl)N(C(=O)[C@@H]1CCN(S(=O)(=O)N2CC2)C1)c1cccc(F)c1 [Example 36, (R)-1-(aziridin-1-ylsulfonyl)-N—((S)-1-(2-chlorophenyl)-2-((3,3-difluorocyclobutyl)amino)-2-oxoethyl)-N-(3-fluorophenyl)pyrrolidine-3-carboxamide]
22 | < 20 nM | O=C(NC1CCC(F)(F)CC1)C(c1ccccc1Cl)N(C(=O)CNS(=O)(=O)N1CC1)c1cccc(F)c1 (centres unmarked) [Example 30, 2-(aziridine-1-sulfonylamino)-N-(1-(2-chlorophenyl)-2-(4,4-difluorocyclohexylamino)-2-oxoethyl)-N-(3-fluorophenyl)acetamide]
23 | < 20 nM | O=C(NC1CCCCC1)C(c1ccccc1Cl)N(C(=O)CCCS(=O)(=O)N1CC1)c1cccc(F)c1 (centres unmarked) [Example 21, 4-(aziridin-1-ylsulfonyl)-N-(1-(2-chlorophenyl)-2-(cyclohexylamino)-2-oxoethyl)-N-(3-fluorophenyl)butanamide]
24 | < 20 nM | O=C(NC1CCCCC1)C(c1ccccc1Cl)N(C(=O)C1CC(NS(=O)(=O)N2CC2)C1)c1cccc(F)c1 (centres unmarked) [Example 22, 3-(aziridine-1-sulfonylamino)-N-(1-(2-chlorophenyl)-2-cyclohexylamino-2-oxoethyl)-N-(3-fluorophenyl)cyclobutyl carboxamide]
25 | < 20 nM | O=C(NC1CCCCC1)C(c1ccccc1Cl)N(C(=O)CNS(=O)(=O)N1CC1)c1cccc(F)c1 (centres unmarked) [Example 1, 2-(aziridinyl-1-sulfonylamino)-N-(1-(2-chlorophenyl)-2-(cyclohexylamino)-2-oxoethyl)-N-(3-fluorophenyl)acetamide]
26 | < 20 nM | O=C(NC1CCCCC1)C(c1ccccc1Cl)N(C(=O)CCNS(=O)(=O)N1CC1)c1cccc(F)c1 (centres unmarked) [Example 5, 3-(aziridine-1-sulfonylamino)-N-(1-(2-chlorophenyl)-2-(cyclohexylamino)-2-oxoethyl)-N-(3-fluorophenyl)propanamide]
